The record followed here is ChEMBL document CHEMBL1135342, “Synthesis and evaluation of thymidine-5'-O-monophosphate analogues as inhibitors of Mycobacterium tuberculosis thymidylate kinase” (Bioorg Med Chem Lett, 2002).

In the assay the target is T1, Thymidylate kinase (Mycobacterium tuberculosis, UniProt P9WKE1).
T1 sequence (P9WKE1 whole entry): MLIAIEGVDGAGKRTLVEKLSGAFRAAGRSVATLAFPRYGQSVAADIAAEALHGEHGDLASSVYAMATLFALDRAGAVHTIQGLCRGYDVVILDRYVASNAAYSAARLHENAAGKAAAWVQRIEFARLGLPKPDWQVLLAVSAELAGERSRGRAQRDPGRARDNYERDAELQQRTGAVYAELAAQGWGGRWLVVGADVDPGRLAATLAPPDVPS
Put plainly: Compound was tested for binding affinity against Mycobacterium tuberculosis thymidine monophosphate kinase.
As usually defined, the Ki is a dissociation constant, usually derived from enzyme kinetics or from competition with a known ligand. A higher Ki goes with a looser hold on the target. `Cc1cn([C@@H]2O[C@H](COP(=O)(O)O)[C@@H](O)[C@H]2N)c(=O)[nH]c1=O` gave a Ki of 55 µM.

`Cc1cn([C@@H]2O[C@H](COP(=O)(O)O)[C@@H](N)[C@H]2O)c(=O)[nH]c1=O` registered a Ki of 27 µM.

Compound `Cc1cn([C@H]2C[C@H](N)[C@@H](COP(=O)(O)O)O2)c(=O)[nH]c1=O` had a Ki of 235 µM.

`Cc1cn([C@@H]2O[C@H](COP(=O)(O)O)[C@@H](O)[C@H]2F)c(=O)[nH]c1=O` returned a Ki of 43 µM.

Compound `Cc1cn([C@@H]2O[C@H](COP(=O)(O)O)[C@@H](O)[C@H]2Cl)c(=O)[nH]c1=O` showed a Ki of 19 µM.

On to `Cc1cn([C@H]2C[C@H](N=[N+]=[N-])[C@@H](COP(=O)(O)O)O2)c(=O)[nH]c1=O` [AZIDOTHYMIDINE MONOPHOSPHATE], for which the affinity corresponds to a Ki of 10 µM.
